Target: T1, human dihydrofolate reductase (DHFR) (Homo sapiens, UniProt P00374)
T1 sequence (P00374 1-187): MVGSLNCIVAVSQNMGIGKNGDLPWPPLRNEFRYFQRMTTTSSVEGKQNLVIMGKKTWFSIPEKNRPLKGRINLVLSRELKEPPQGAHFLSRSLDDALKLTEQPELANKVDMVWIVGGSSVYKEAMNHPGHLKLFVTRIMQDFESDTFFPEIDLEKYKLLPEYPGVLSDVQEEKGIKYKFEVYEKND
Test: Inhibition of human DHFR (spectrophotometric, decrease in absorbance at 340 nm)
Assay type: biochemical
Details: recombinant human DHFR 0.2 μg/mL, 0.1 mM dihydrofolate, 0.1 mM NADPH, pH 7.3, 37° C., 1% DMSO, triplicate
Description: The activity of multiple compounds as inhibitors of human dihydrofolate reductase (DHFR) was evaluated. The dry test compounds were dissolved in 100% DMSO at a concentration of 10 mM. For the test assays, the compounds were serially diluted in 100% DMSO and added to the assays so that the final concentration of DMSO in the assays was 1%.
The final assay conditions for the human DHFR assays were: […] KPO4 (pH7.3), 250 mM KCl, 0.1 mM dihydrofolate, 0.1 mM NADPH, 1% DMSO, and 0.2 μg/mL recombinant human DHFR. The final volume of the assay was 800 μL in a semi-micro cuvet.
A decrease in absorbance at 340 nm was monitored for three minutes in a Cary spectrophotometer at 37° C. The concentrations used for each compound across a range of 10,000 to 0.08 nM, depending on the expected level of activity. The assays were done in triplicate for each compound. […] A minimum of seven concentrations were used to generate a curve, and IC50 values were calculated using the Standard Curve Analysis of Sigma Plot Enzyme Kinetics software.

| Compound | IC50 [nM] |
| --- | --- |
| C=C(CC(NC(=O)c1ccc(CCc2ccc3nc(N)nc(N)c3c2)cc1)C(=O)O)C(=O)O (stereo not drawn) [Comparative, 2-{4-[2-(2,4-diamino-quinazolin-6-yl)-ethyl]-benzoylamino}-4-methylidene-pentanedioic acid, reference compound] | 5.4 |
| Nc1nc(N)c2cc(CCc3ccc(C(=O)NCC[C@@H](O)C[C@@H](O)CC(=O)O)cc3)ccc2n1 [Inventive 1] | 8.65 |
| Nc1nc(N)c2cc(CCc3ccc(CNCC[C@@H](O)C[C@@H](O)CC(=O)O)cc3)ccc2n1 [Inventive 2] | 670 |

From US8530653B2, “Enzyme inhibiting compounds” (Chelsea Therapeutics, Inc., priority 2009, dated 2013)
